A short description of experiment [1]: Inhibition of 20s immunoproteasome beta2 trypsin-like activity in human spleen using Boc-Leu-Arg-Arg-AMC as substrate after 10 mins by fluorescence assay.
Experiment [2] in a line: Inhibition of 20s constitutive proteasome beta2 trypsin-like activity in human erythrocytes using Boc-Leu-Arg-Arg-AMC as substrate after 10 mins by fluorescence assay.
Experiment [3] is described as follows: Inhibition of 20s immunoproteasome beta5 chymotrypsin-like activity in human spleen using Suc-Leu-Leu-Val-Tyr-AMC as substrate after 10 mins by fluorescence assay.
The nature of experiment [4]: Inhibition of 20s immunoproteasome beta1 caspase-like activity in human spleen using Ac-Pro-Ala-Leu-AMC as substrate after 10 mins by fluorescence assay.
A short description of experiment [5]: Inhibition of 20s constitutive proteasome beta1 caspase-like activity in human erythrocytes using Z-Leu-Leu-Glu-AMC as substrate after 10 mins by fluorescence assay.

Usually Ki stands for a dissociation constant, usually derived from enzyme kinetics or from competition with a known ligand. Low readings indicate tighter binding, high ones weaker binding.

On to `CSc1ccc(/C=C2\NC(=S)N(c3ccccc3)C2=O)cc1`, for which the Ki stood at 4.38 µM in experiment [1] and 20 µM in experiment [2].
As for `COc1ccc(/C=C2\NC(=S)N(c3ccccc3)C2=O)cc1OC`, the figures for the Ki in experiment [3] and in experiment [4] were 2.01 µM and 2.64 µM, respectively.
In the case of `O=C1/C(=C/c2ccc(Oc3ccccc3)cc2)NC(=S)N1c1cccc2ccccc12`, the Ki came out at 5.57 µM in experiment [1] and 9.64 µM in experiment [5].
`COc1cc(/C=C2\NC(=S)N(c3ccccc3)C2=O)ccc1O`: the values for the Ki in experiment [1] and in experiment [3] were 6.71 µM and 11.5 µM, respectively.
Regarding `COc1ccc(/C=C2\NC(=S)N(c3ccccc3)C2=O)cc1`, the Ki in experiment [3] worked out at 10.9 µM.
`COc1ccc(/C=C2\NC(=S)N(c3ccccc3)C2=O)cc1O`: the Ki in experiment [3] turned out to be 2.35 µM; in experiment [4], 6.53 µM.

The values above are taken from BindingDB's records for doi:10.1016/j.bmcl.2017.12.053 (n/a, 2018).
